The source of these data is patent publication US8618300B2, “Indolizine inhibitors of leukotriene production” (Boehringer Ingelheim International GmbH, priority 2008, dated 2013).

The test system of one test is human glomerulonephritis. Conditions: clinical trial; cited from earlier work.
Test [1] relates to apoE/LDL-R double knockout mice. Conditions: oral dosing, high-fat diet from 2 months of age to 6 months; cited from earlier work.
Test [2] deals with ApoE^−/−×CD4 dnTβRII mice. Particulars: infusion, treated for four weeks after 12 weeks plaque growth; cited from earlier work.
Test [3] relates to biomarkers for myocardial infarction risk. Particulars: clinical trials; cited from earlier work.
Test [4] has as its target T1, recombinant human FLAP protein (Homo sapiens, UniProt P20292).
T1 construct: made in house; host or cells: Sf9 insect cells (100,000 x g membrane pellet)
T1 sequence (P20292 1-161): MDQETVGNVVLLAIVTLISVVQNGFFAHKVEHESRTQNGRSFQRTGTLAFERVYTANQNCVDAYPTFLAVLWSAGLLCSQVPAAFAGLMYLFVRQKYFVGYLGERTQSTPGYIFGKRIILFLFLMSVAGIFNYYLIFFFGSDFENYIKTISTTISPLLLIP
Kind of test: FLAP binding assay, Scintillation Proximity Assay, displacement of [125I]L-691,831. Particulars: read-out: hFLAP binding IC50. As for the experimental part: Compounds are assessed for the ability to bind to FLAP in a binding assay that measures compound-specific displacement of an iodinated (^1251) FLAP inhibitor via a Scintillation Proximity Assay format (adapted from S. Charleson et al., Mol. Pharmacol., 1992, 41, 873-879).
Cell pellets produced from sf9 insect cells expressing recombinant human FLAP protein are resuspended in buffer A [15 mM Tris-HCl (pH 7.5), 2 mM MgCl2, 0.3 mM EDTA, 1 mM PMSF]. The cells are lysed with a Dounce homogenizer and the material is centrifuged at 10,000×g for 10 minutes. The supernatant is then collected and centrifuged at 100,000×g for 60 minutes. To prepare membrane protein for an assay, an aliquot of the 100,000×g pellet is resuspended in 1 ml of buffer A, Dounce homogenized, and finally subjected to polytron mixing (30 seconds). Membrane protein (25 μl, 5 μg) is mixed with WGA SPA beads (Amersham) and stirred for 1 h. To an assay plate (Perkin Elmer FlexiPlate) is added 25 μl of test compound prepared in Binding buffer [100 mM Tris (pH 7.5), 140 mM NaCl, 5% glycerol, 2 mM EDTA, 0.5 mM TCEP, 0.05% Tween 20], 25 μl of [^125I]L-691,831 (an iodinated analog of MK-591, Charleson et al. Mol. Pharmacol., 41, 873-879, 1992) and finally 50 μl of the bead/protein mixture. (final concentrations: beads, 200 μg/well; protein, 5 μg/well; [^125I] probe, 0 08 nM/well (17 nCi/well). The plates are shaken for 2 h before reading on a Microbeta plate reader. Non-specific binding is determined by the addition of 10 μM cold L-691,831 compound.
In general terms: SPA uses beads or plates that emit light when radiolabelled molecules are held near them.

Turning to `CC(C)(C)Sc1c(CC(C)(C)C(=O)O)n(Cc2ccc(Cl)cc2)c2ccc(OCc3ccc4ccccc4n3)cc12` [MK-591], in the test with human glomerulonephritis, the effect on proteinuria result is “useful for reducing proteinuria”.

`CC(C)c1ccc2c(c1)c(SC(C)(C)C)c(CC(C)(C)C(=O)O)n2Cc1ccc(Cl)cc1` [MK-886]: in test [1], the “decrease in plaque coverage in the aorta” value is 56% and the “decrease in plaque coverage in the aortic root” value is reported as 43%. For the same compound, in test [2], the “decrease in plaque area in the aortic root” value was roughly 40%. Regarding `O=C(O)[C@@H](c1ccc(OCc2ccc3ccccc3n2)cc1)C1CCCC1` [DG-031], the “effect on biomarkers for myocardial infarction risk” value in test [3] was “dose-dependent suppression of biomarkers”. By IC50 is commonly meant the point on the concentration scale where inhibition reaches its midpoint. On to `Cc1csc(COc2ccn3c(C(=O)c4ccc(Cl)c(C)c4)c(CC(C)(C)C(=O)O)c(C(=O)C(C)(C)C)c3c2)n1` [3-{3-[(4-chloro-3-methylphenyl)carbonyl]-1-(2,2-dimethylpropanoyl)-7-[(4-methyl-1,3-thiazol-2-yl)methoxy]indolizin-2-yl}-2,2-dimethylpropanoic acid], for which the IC50 in test [4] is 1 nM.

For `COc1ccc(C(=O)c2c(CC(C)(C)C(N)=O)c(C(=O)C(C)(C)C)c3cc(OCc4cccc(N)n4)ccn23)cc1` [3-{7-[(6-aminopyridin-2-yl)methoxy]-1-(2,2-dimethylpropanoyl)-3-(4-methoxybenzoyl)indolizin-2-yl}-2,2-dimethylpropanamide], the IC50 in test [4] was 2 nM.
